System: colorectal cancer cell lines with stably overexpressed or knockdown piR-54265
Test: IC50 experiments with chemotherapy drugs on colorectal cancer cell lines with overexpressed or knockdown piR-54265
Format: cell-based
Settings: for cell chemosensitivity (change of IC50): cells after knocking down piR-54265, versus control; for chemoresistance of the colorectal cancer cells (change of IC50): cells overexpressing piR-54265, versus control
Text: IC50 experiments with the first-line colorectal cancer chemotherapy drugs 5-FU and L-OHP were respectively performed on colorectal cancer cell lines with stably overexpressed or knockdown piR-54265. Subcutaneous xenograft tumors in nude mice were established using the stable cell lines mentioned above, and when a tumor volume reached 250 mm^3, treatment of intraperitoneal injection with 5-FU or L-OHP was started, and the change of the tumor volume was periodically measured.

cell chemosensitivity (change of IC50) | chemoresistance of the colorectal cancer cells (change of IC50) | SMILES
improved | enhanced | O=c1[nH]cc(F)c(=O)[nH]1 [5-FU]
improved | enhanced | N[C@@H]1CCCC[C@H]1N.O=C([O-])C(=O)[O-].[Pt+2] [L-OHP]
